Here are results for one compound from paper PMC6021502, “Cannabigerol Action at Cannabinoid CB1 and CB2 Receptors and at CB1–CB2 Heteroreceptor Complexes” (Frontiers in Pharmacology, 2018).

The target in assay [1] is T1, SNAP-CB2R (Homo sapiens, UniProt P34972).
T1 construct: host or cells: HEK-293T, transient transfection (PEI)
Set-up: method as in Martínez-Pinilla et al., 2016. The note with it: HTRF binding to CB2R; ref Martínez-Pinilla et al., 2016; read-out: KD used in the Cheng and Prusoff equation for homogeneous binding; cited from earlier work. (In general: Time-resolved FRET reads energy transfer from a long-lived donor to a nearby acceptor.)

In assay [2] the target is T2, CB2R in a CB1–CB2 receptor heteromer context (Homo sapiens, UniProt P34972).
T2 construct: host or cells: HEK-293T, transient co-transfection (PEI)
Description: Homogeneous HTRF competition binding in living HEK-293T cells expressing SNAP-CB2R and CB1R. The conditions noted are these: 20 nM fluorescent ligand, read-out: Ki, HTRF competition of fluorophore-conjugated CM-157 in the presence of CB1R.

Assay [3] deals with T1, SNAP-CB2R. Description: Homogeneous HTRF competition binding in living HEK-293T cells (fluorophore-conjugated CM-157). The note with it: living HEK-293T cells expressing SNAP-CB2R, 20 nM fluorescent ligand.

T1 sequence (P34972 whole entry): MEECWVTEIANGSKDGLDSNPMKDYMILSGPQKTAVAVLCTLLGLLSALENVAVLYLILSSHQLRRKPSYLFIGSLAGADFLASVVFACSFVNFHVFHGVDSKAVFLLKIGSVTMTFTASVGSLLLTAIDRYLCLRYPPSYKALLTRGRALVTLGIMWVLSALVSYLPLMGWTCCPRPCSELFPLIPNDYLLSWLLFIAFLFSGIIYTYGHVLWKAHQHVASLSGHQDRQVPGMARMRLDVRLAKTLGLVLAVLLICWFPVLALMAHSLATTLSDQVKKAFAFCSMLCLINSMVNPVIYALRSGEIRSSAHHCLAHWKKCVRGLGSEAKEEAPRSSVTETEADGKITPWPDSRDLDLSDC
T2 sequence (P34972 whole entry): as above
T2 sequence (P21554 whole entry partner): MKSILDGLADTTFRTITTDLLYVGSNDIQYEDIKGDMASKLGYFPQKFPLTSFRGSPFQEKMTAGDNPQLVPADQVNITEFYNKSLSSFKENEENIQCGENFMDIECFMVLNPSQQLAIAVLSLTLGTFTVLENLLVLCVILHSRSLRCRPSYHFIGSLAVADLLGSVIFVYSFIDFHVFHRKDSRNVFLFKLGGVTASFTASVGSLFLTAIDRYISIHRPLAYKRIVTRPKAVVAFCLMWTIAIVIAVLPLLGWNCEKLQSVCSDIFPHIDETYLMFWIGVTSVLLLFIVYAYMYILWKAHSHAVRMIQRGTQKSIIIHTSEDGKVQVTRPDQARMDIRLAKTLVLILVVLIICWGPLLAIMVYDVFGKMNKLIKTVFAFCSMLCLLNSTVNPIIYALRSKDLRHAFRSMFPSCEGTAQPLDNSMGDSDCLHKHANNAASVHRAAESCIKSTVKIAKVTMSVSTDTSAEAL

With `CC(C)(C)c1nc2cc(S(=O)(=O)c3ccnc(OCCCN)c3)ccc2n1CC1CCOCC1` [CM-157, 3-[[4-[2-tert-butyl-1-(tetrahydropyran-4-ylmethyl)benzimidazol-5-yl]sulfonyl-2-pyridyl]oxy]propan-1-amine, reference compound], the Kd in assay [1] was 21 nM. The Ki was determined as 19 nM in assay [2] and 16 nM in assay [3].

As usually defined, the Kd is the concentration at which binding is half-saturated. One may read the Ki as a measure of affinity in units of concentration, obtained from inhibition or displacement.
